Our source for the IC50 and Kd values is PMC2685384, “Binding characteristics of the ovine membrane progesterone receptor alpha and expression of the receptor during the estrous cycle” (Reproductive Biology and Endocrinology : RB&E, 2009).

Where two headings read alike, the source gives them in different places.

Test [1] deals with T1, ovine membrane progesterone receptor alpha (mPRα) (Ovis aries, UniProt A0ACI6Q1G6).
T1 construct: gene PAQR7; ovine mPRα expressed in CHO cells; digitonin-treated crude membrane fractions
T1 sequence (A0ACI6Q1G6 1-350): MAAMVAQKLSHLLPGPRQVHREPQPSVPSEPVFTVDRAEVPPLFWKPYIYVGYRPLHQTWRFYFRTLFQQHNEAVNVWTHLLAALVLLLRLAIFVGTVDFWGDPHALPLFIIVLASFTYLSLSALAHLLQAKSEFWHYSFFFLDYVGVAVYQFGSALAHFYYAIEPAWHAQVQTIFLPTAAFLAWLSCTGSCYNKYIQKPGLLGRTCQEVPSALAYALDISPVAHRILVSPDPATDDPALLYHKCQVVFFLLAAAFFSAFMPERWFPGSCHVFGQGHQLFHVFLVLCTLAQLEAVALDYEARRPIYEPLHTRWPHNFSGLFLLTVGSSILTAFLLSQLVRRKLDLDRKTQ
The test can be described thus: radioligand competition against 3H-progesterone on mPRα-CHO membranes. The test is classed as binding. On the technique in general: Loss of bound radioactivity is the signal in a displacement assay; it reports binding, not function.

In test [2] the target is T1, ovine membrane progesterone receptor alpha (mPRα). In words: 3H-progesterone saturation binding on membranes of stable mPRα-CHO cells (also competition, IC50 =[…]).

As a reminder, the IC50 is the concentration that inhibits the measured activity by half. By Kd is commonly meant the concentration at which binding is half-saturated. A lower Kd goes with a tighter complex.

Compound `C[C@H](O)[C@H]1CC[C@H]2[C@@H]3CCC4=CC(=O)CC[C@]4(C)[C@H]3CC[C@]12C` [20-OH-P4, 20α-hydroxyprogesterone] came in with an IC50 in test [1] of 298 nM.
In turn, `CC(=O)[C@H]1CC[C@H]2[C@@H]3CCC4=CC(=O)CC[C@]4(C)[C@H]3CC[C@]12C` [P4, progesterone] displayed a Kd in test [2] of 122 nM.
Consider `CC(=O)[C@@]1(O)CC[C@H]2[C@@H]3CCC4=CC(=O)CC[C@]4(C)[C@H]3CC[C@@]21C` [17-OH-P4, 17α-hydroxyprogesterone], for which the IC50 in test [1] (read-out: IC50) was 735 nM.
